# Where a name gives a salt, the structure may show the parent alone.
# Experiments:
# [1] = tested on: Behavior change due to the spinal intrathecal injection of ferrous chloride in mice; test: Behavior change due to spinal intrathecal injection of ferrous chloride in mice; assay type: in vivo, Slc:ICR mouse; conditions: 100 mg/kg p.o., 30 min before i.t. ferrous chloride; for Average score, 100 mg/kg dose: scale 0 (normal) to 5 (death); for Inhibition rate (%): vs saline
# Procedure: In male Slc : ICR mouse of 5 weeks age 10 mice per group were used. […] The evaluation point of behavior change was scored according to the following criterion.
# The inhibition rate was shown based on the evaluation point under the above criterion. The test compound was orally administered 30 minutes before the i.t. injection of ferrous chloride.
# [2] = tested on: lipoperoxide formation in rat's brain homogenate; test: Inhibitory action for lipoperoxide formation in rat's brain homogenate (thiobarbituric acid method); assay type: biochemical; conditions: read-out: IC50 (M) × 10^-7
# Procedure: According to the method by Suno et al. (Japan J. Pharmacol., 35, 196(1984) , the concentration of the compound necessary for 50% inhibition of lipoperoxide formation in rat's brain homogenate was determined by examining the lipoperoxide formation using the thiobarbituric acid method. The results obtained are shown in Table 3.
# [3] = target: T1, 5-lipoxygenase (Rattus norvegicus, UniProt P12527); test: Inhibitory action on 5-lipoxygenase (5-HETE formation in RBL-1 cells); assay type: cell-based; conditions: read-out: Inhibition rate (%) of 5-HETE formation; for inhibition at 1 µM: 10^-6 M; for inhibition at 0.1 µM: 10^-7 M; for inhibition at 0.01 µM: 10^-8 M
# T1 construct: endogenous in cells; host or cells: RBL-1 (rat basophilic leukemia cells)
# T1 sequence (P12527 1-673): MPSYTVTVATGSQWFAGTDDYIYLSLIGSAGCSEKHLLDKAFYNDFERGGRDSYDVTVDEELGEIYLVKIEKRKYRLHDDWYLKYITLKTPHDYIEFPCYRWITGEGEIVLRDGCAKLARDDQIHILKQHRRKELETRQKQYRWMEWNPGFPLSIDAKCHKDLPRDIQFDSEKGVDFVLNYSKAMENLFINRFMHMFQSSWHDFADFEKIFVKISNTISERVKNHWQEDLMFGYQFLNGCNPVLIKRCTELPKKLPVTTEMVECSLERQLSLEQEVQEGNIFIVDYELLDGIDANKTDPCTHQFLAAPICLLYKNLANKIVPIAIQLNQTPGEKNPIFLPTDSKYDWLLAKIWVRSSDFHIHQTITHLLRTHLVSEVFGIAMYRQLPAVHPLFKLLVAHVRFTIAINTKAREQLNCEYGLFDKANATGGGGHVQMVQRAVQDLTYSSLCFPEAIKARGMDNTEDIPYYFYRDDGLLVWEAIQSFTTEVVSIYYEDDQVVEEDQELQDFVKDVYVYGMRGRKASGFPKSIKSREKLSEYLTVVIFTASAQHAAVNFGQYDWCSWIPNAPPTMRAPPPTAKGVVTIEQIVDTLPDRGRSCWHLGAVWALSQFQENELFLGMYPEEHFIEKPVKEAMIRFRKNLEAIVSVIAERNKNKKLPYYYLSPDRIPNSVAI
# Procedure: RBL-1 cells (rat basophilic leukemia cells) of 10^7 were suspended in 0.9 ml of MCM (mast cell medium). […] The mixture was incubated at 37° C. for 5 minutes. Then, 0.1 ml of MCM containing 50 μg of arachidonic acid and 10 μg of calcium ionophore A-23187 was added and further the mixture was incubated at 37° C. for 15 minutes. After the reaction, 1 ml of ethanol was added, well shaken and subjected to high performance liquid chromatography to determine 5-HETE. The absorption at 240 nm due to 5-HETE was measured by an ultraviolet abosorption monitor. The inhibition rate of 5-HETE formation is represented by (1-b/a)×100, wherein a is the peak height or area in the absence of the compound (I) and b is that in the presence of the compound (I).
# [4] = target: T2, Leukotriene D4 (LTD4) receptor (Cavia porcellus, UniProt Q2NNR5); test: Leukotriene D4 (LTD4) receptor antagonism ([3H]LTD4, guinea pigs' lung membrane fraction); assay type: binding, guinea pig; conditions: read-out: Inhibition rate (%) LTD4 receptor; for inhibition at 1 µM: 10^-6 M; for inhibition at 0.1 µM: 10^-7 M; for inhibition at 0.01 µM: 10^-8 M
# T2 construct: guinea pigs' lung membrane fraction; from tissue; host or cells: guinea pig lung membrane fraction
# T2 sequence (Q2NNR5 1-340): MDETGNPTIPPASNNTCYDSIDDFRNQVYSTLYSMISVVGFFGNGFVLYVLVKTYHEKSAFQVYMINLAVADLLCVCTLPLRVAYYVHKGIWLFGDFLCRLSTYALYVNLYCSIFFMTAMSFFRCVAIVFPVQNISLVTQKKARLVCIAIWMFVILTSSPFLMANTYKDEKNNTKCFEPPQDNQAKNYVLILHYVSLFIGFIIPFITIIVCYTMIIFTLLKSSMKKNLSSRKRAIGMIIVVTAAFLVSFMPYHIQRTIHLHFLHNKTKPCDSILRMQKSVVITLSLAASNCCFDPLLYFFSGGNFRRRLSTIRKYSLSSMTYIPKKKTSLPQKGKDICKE
# Procedure: According to the method by S. S. Pong , and R. N. DeHaven (Proceedings of the National Academy of Sciences of the United States of America, 80, 7415-7419 (1983) , the leukotriene D4 (LTD4) receptor antagonism was measured by using [^3 H]LTD4 and guinea pigs' lung membrane fraction. The results are shown in Table 5.
# [5] = tested on: formation of HHT (12-hydroxyheptadeca-5,8,10-trienoic acid) in rat's platelet; test: Inhibitory action for the formation of HHT in rat's platelet; assay type: cell-based; conditions: rat platelet rich plasma, read-out: Inhibition rate (%) of HHT formation; for inhibition at 100 µM: 10^-4 M; for inhibition at 10 µM: 10^-5 M; for inhibition at 1 µM: 10^-6 M
# Procedure: Eight ml of blood was gathered from the abdominal aorta of a rat (JcI : Wistar, male, 12-15 weeks age) subjected to abdominal incision under anesthesia by the use of 3.2 % sodium citrate (1 volume of sodium citrate solution to 9 volume of whole blood). The blood was centrifuged at 800 rpm for 10 minutes at room temperature to gather PRP (platelet rich plasma), and the residual blood was further centrifuged at 3000 rpm for 10 minutes to gather PPP (platelet poor plasma). The platelet number in PRP was measured and the PRP was adjusted by diluting with PPP so that the concentration of platelet was one million/μl. To 0.25 ml of the PRP, 125 μg of arachidonic acid and the test compound (the final concentration of 100 μM, 10 μM, 1 μM and 0.1 μM) were added, and the mixture was incubated at 37° C. for 15 minutes. After the reaction, 1.1 ml of ethanol was added, well shaken and centrifuged at 2000 rpm for 10 minutes to separate the supernatant. To 1 ml of the supernatant 1 ml of water was added and subjected to high performance liquid chromatography to determine HHT. The absorption at 240 nm due to HHT was measured by an ultraviolet absorption monitor. […]
smiles,measurement,setting,value
"COc1ccc(C=Cc2nc3c(s2)NCCCC3)cc1OC.Cl [Example 16, 2-(3,4-Dimethoxystyryl)-5,6,7,8-tetrahydro-4H-thiazolo[5,4-b]azepine hydrochloride]","Average score, 100 mg/kg dose",[1],0.3
same,Inhibition rate (%),[1],94.0%
"COc1ccc(C=CC=Cc2nc3c(s2)NCCCC3)cc1 [Example 9, 2-[4-(4-Methoxyphenyl)butadienyl]-5,6,7,8-tetrahydro-4H-thiazolo [5,4-b]azepine]",IC50,[2],7e-07 M
same,inhibition at 1 µM,[3],100%
same,inhibition at 0.1 µM,[3],79%
same,inhibition at 0.01 µM,[3],12%
"c1ccc2cc(-c3nc4c(s3)NCCCC4)ccc2c1 [Example 30, 2-(2-Naphthyl)-5,6,7,8-tetrahydro-4H-thiazolo [5,4-b]azepine]",inhibition at 1 µM,[4],100%
same,inhibition at 0.1 µM,[4],98.8%
same,inhibition at 0.01 µM,[4],76%
"COc1ccc(-c2nc3c(s2)NCCCC3)cc1 [Example 5, 2-(4-Methoxyphenyl)-5,6,7,8-tetrahydro-4H-thiazolo[5,4-b]azepine hydrochloride]","Average score, 100 mg/kg dose",[1],0.9
same,Inhibition rate (%),[1],82.0%
"c1csc(-c2nc3c(s2)NCCCC3)c1 [Example 31, 2-(2-Thienyl)-5,6,7,8-tetrahydro-4H-thiazolo[5,4-b]azepine]",inhibition at 100 µM,[5],100%
same,inhibition at 10 µM,[5],80%
same,inhibition at 1 µM,[5],19%
"Clc1ccc(C=Cc2nc3c(s2)NCCCC3)cc1Cl [Example 20, 2-(3,4-Dichlorostyryl)-5,6,7,8-tetrahydro-4H-thiazolo[5,4-b]azepine]",inhibition at 100 µM,[5],96%
same,inhibition at 10 µM,[5],43%
same,inhibition at 1 µM,[5],18%
same,inhibition at 1 µM,[3],100%
same,inhibition at 0.1 µM,[3],44%
same,inhibition at 0.01 µM,[3],2%
"CCOc1ccc(C=Cc2nc3c(s2)NCCCC3)cc1 [Example 7, 2-(4-Ethoxystyryl)-5,6,7,8-tetrahydro-4H-thiazolo[5,4-b]azepine]",IC50,[2],8e-07 M
"COc1ccc(C=Cc2nc3c(s2)NCCCC3)cc1 [Example 2, 2-(4-Methoxystyryl)-5,6,7,8-tetrahydro-4H-thiazolo[5,4-b]azepine]","Average score, 100 mg/kg dose",[1],1.2
same,Inhibition rate (%),[1],74.5%
same,inhibition at 100 µM,[5],100%
same,inhibition at 10 µM,[5],58%
same,inhibition at 1 µM,[5],16%
same,inhibition at 1 µM,[3],100%
same,inhibition at 0.1 µM,[3],56%
same,inhibition at 0.01 µM,[3],14%
"Fc1ccccc1-c1nc2c(s1)NCCCC2 [Example 23, 2-(2-Fluorophenyl)-5,6,7,8-tetrahydro-4H-thiazolo [5,4-b]azepine]",IC50,[2],1.2e-06 M
"O=[N+]([O-])c1ccc(-c2nc3c(s2)NCCCC3)cc1 [Example 24, 2-(4-Nitrophenyl)-5,6,7,8-tetrahydro-4H-thiazolo[5,4-b]azepine]",inhibition at 1 µM,[3],93%
same,inhibition at 0.1 µM,[3],53%
same,inhibition at 0.01 µM,[3],26%
"C(=Cc1nc2c(s1)NCCCC2)c1ccc2c(c1)OCO2 [Example 13, 2-(3,4-Methylenedioxystyryl)-5,6,7,8-tetrahydro-4H-thiazolo[5,4-b]azepine hydrochloride]",inhibition at 1 µM,[4],100%
same,inhibition at 0.1 µM,[4],92.5%
same,inhibition at 0.01 µM,[4],61%
"C(=Cc1nc2c(s1)NCCCC2)c1ccccc1 [Example 3, 2-Styryl-5,6,7,8-tetrahydro-4H-thiazolo[5,4-b]azepine]",inhibition at 100 µM,[5],100%
same,inhibition at 10 µM,[5],83%
same,inhibition at 1 µM,[5],22%
"CS(=O)(=O)N1CCCCc2nc(-c3ccncc3)sc21 [Example 41, 4-Methanesulfonyl-2-(4-pyridyl)-5,6,7,8-tetrahydro-4H-thiazolo[5,4-b]azepin]",inhibition at 100 µM,[5],87%
same,inhibition at 10 µM,[5],63%
same,inhibition at 1 µM,[5],23%
"COc1ccccc1C=Cc1nc2c(s1)NCCCC2 [Example 12, 2-(2-Methoxystyryl)-5,6,7,8-tetrahydro-4H-thiazolo [5,4-b)azepine oxalate]",IC50,[2],6e-07 M
"O=[N+]([O-])c1ccc(C=Cc2nc3c(s2)NCCCC3)cc1 [Example 22, 2-(4-Nitrostyryl)-5,6,7,8-tetrahydro-4H-thiazolo-[5,4-b]azepine]",inhibition at 1 µM,[3],100%
same,inhibition at 0.1 µM,[3],49%
same,inhibition at 0.01 µM,[3],4%

# From patent US5300639A, “Thiazolo [5,4-b]azepine compounds” (Takeda Chemical Industries, Ltd., priority 1992, dated 1994)
